Test results: patent publication US12213975B2, “PDE9 inhibitors for treating sickle cell disease” (Cardurion Pharmaceuticals, Inc., priority 2018, dated 2025)

Columns and labels:
[1] = system: SCD patient neutrophils adhering to activated endothelial cells HMEC-1; assay: In vitro adhesion assay mimicking blood flow: SS patient neutrophils on activated HMEC-1 lined microchannels; format: cell-based, human
Description: This appears to be accompanied by a Compound 1-mediated reduction in disease specific cell activation including 67% lower levels of myeloid derived myeloperoxidase (MPO) and 26% lower levels of neutrophil derived arginase in the lung (FIG. 1). […] This was quantified by real time monitoring of the green florescent patches in the mircochannel, as neutrophils are labeled by a specific Alexa Fluor® 488-conjugated antibody before the perfusion step. […] Under these conditions, adhesion was reduced an average of 54% (p=0.03) (FIG. 2). Mechanistically, not willing to be bound by any theory, Compound 1 may target the stationary adhesion step of neutrophils as it lowered expression levels of key neutrophil integrins including CD11a [reduced 23% (p=0.002)], CD11b [reduced 39% (ns)) and CD18 [reduced 47% (p=0.03)) (FIG. 3).

patient = assay: Adverse event profile when taken with food; format: in vivo; conditions: once a day with food
Protocol: In some embodiments, Compound 1 or a pharmaceutically acceptable salt or polymorph thereof is administered to a patient, wherein Compound 1 or a pharmaceutically acceptable salt or polymorph thereof is administered once a day with food. […] The incidence and severity of the side effects, such as nausea, emesis and headache, can be reduced when Compound 1 or a pharmaceutically acceptable salt or polymorph thereof, is taken with food.

Townes mouse model = assay: Plasma sE-Selectin in Townes mouse model of SCD; format: in vivo; conditions: Townes mice treated with Compound 1
Description: Recently several drugs targeting white cell binding to endothelial cells, have been advancing in clinical studies in patients. Compound 1 is able to increase expression of fetal hemoglobin in patient derived cells and murine models of SCD and reduce vessel occlusion in SCD murine models. In this Example, the ability of Compound 1 to reduce the adhesive properties of neutrophils from SCD patients and reduce sE-Selectin (sE-Sel) and markers of PMN activation in murine SCD models was studied.
Endothelial E-selectin (E-Sel) slows leukocyte rolling, which is followed by stationary adhesion and transmigration of activated leukocytes. Plasma levels of sE-Sel, produced by the enzymatic cleavage of the extracellular domains of E-Sel, are increased in SCD patients and this may be mediated by its interaction with leukocytes. In the Townes mouse model, plasma sE-Sel is increased 144% ([…]) over levels seen in control mice ([…]).

SCD models = assay: Circulating levels of PMNs in SCD models; format: in vivo

`C[C@@H]1CN(Cc2ncccn2)C[C@H]1c1cn2c(C3CCOCC3)ncc2c(=O)[nH]1` [Compound 1, 6-[(3S,4S)-4-methyl-1-(pyrimidin-2-ylmethyl)pyrrolidin-3-yl]-3-tetrahydropyran-4-yl-7H-imidazo[1,5-a]pyrazin-8-one] was tested, and the “incubation time at which inhibitory effect was initiated” value [1] was 15 min, the “reduction of neutrophil adhesion (average)” value ([1]; 30 min incubation with 30 μM, p=0.03, FIG. 2) was 54% and the “effect on neutrophil adhesion to activated HMEC-1” value ([1]; added to blood samples prior to the perfusion step) was “reduced adhesions significantly and in a dose dependent manner”. The “effect of food on adverse event profile (nausea, emesis, headache)” value (patient) was “food can dramatically reduce the adverse event profile”, the plasma sE-Sel (Townes mouse model; untreated Townes 139, control mice 57) was 92 ng/mL and the “plasma sE-Sel levels elevated over control mice” value (Townes mouse model; untreated Townes increased 144%) was 61%. For the same compound, the “circulating levels of PMNs” value (SCD models) was “reduced circulating levels of PMNs”.
